Assay results published in a melting point compilation (Tetko et al.; mined from patent text by program, amines drawn as free bases though some values may be those of a salt).

SMILES | melting point [°C]
CC(=O)Nc1ccc(Cl)c2c1C(=O)CCN2C(C)=O | 175 to 177
COc1ccc(CC(=O)NC(NC(=NC#N)Nc2cc(F)ccc2F)C(C)(C)C)cc1OC (centres undefined) | 190 to 191
Oc1ccc(C(F)(F)C(F)(F)OC(F)(F)C(F)(F)OC(F)(F)C(F)(F)c2ccc(O)cc2)cc1 | 118 to 120
Cc1nc(N)c2nc(-c3ccccc3)cc-2[nH]1 | > 280
CC(=O)c1ccc(=O)[nH]c1C | 196 to 198
COc1cc(COc2nn(-c3ccccc3)cc2/C=C/C=O)ccc1OCc1nc(-c2ccco2)oc1C | 134 to 135
Cc1nn(C)c(=O)n1-c1ccc([N+](=O)[O-])cc1 | 153
C[C@@H](n1cnc2cccc(Cl)c2c1=O)[C@](O)(Cn1cncn1)c1ccc(F)cc1F | 114 to 119
Cc1cc2c(c3occ(-c4ccc(C(C)C)cc4)c13)CCC2 | 70 to 72
CC(C(N)=S)(c1ccccc1)c1ccccn1 (centres undefined) | 186 to 188
C=CCOCc1c(C=O)sc2c(=O)c(C(=O)NCc3ccc(Cl)cc3)cn(C)c12 | 144 to 147
CCCCc1ccc(/C(Cl)=C/c2ccc(Br)cc2)cc1 | 59 to 61
CC(=O)OCC1OC(OS(=O)(=S)c2ccccc2)C(OC(C)=O)C(OC(C)=O)C1OC(C)=O (centres undefined) | 53 to 54
CCOC(=O)c1ccc(OCc2ccc(F)cc2)cc1 | 60 to 62
CC(C)C(=O)Nc1cc([N+](=O)[O-])c(Sc2cccc3cnccc23)cc1N | 219 to 221
O=C(O)Cc1c(C(=O)O)c2cc(Oc3ccc(Cl)c(Cl)c3)ccc2n1-c1ccc(OCC(F)(F)F)cc1 | 205 to 210
Cc1nc(N2CCN(Cc3ccc(Cl)cc3)C2=O)sc1C(N)=O | > 200
CCCCCCCCCCCCCCOCC(COCCCCCCCCCCCCCC)(CC(=O)O)CC(=O)O | 84 to 86
CC#CCCn1ncc2c(NC(=O)CC)c3c(nc21)CN(CCC)C3=O | 130 to 132
CCOC(=O)COc1ccc(Oc2nc(Cl)cc3ccccc23)cc1 | 97
COc1ccc([C@@H]2Sc3cc(Oc4ccccc4)ccc3NC(=O)[C@@H]2O)cc1 | 181 to 183
OCc1cccc2nc(-c3ccncc3)oc12 | 146 to 147
COC(=O)C#CC(=O)c1ccc(Cl)cc1 | 49 to 50
N[C@@H](Cc1ccccc1)C(O)(c1ccccc1)c1ccccc1 | 141 to 142
COc1ccc(C(=O)N2C(C)Cc3ccccc3C2CNC(=O)c2cc(OC)c(OC)c(OC)c2)cc1 (centres undefined) | 213 to 215

SMILES | melting point [°C]
Cc1ccc(S(=O)(=O)N2CCCN(c3cccc(C)c3C)CC2)cc1 | 86.2
CC(C)(C)OC(=O)N1CCN(c2cccc3c2ccn3S(=O)(=O)c2ccccc2)CC1 | 143 to 144
CS(=O)(=O)Nc1ccc(OC(=O)c2ccc(CCBr)cc2)cc1 | 161 to 162
CCCCN(CCCC)c1ccc(C=CC=CC=CC2=C(C#N)C(=C(C#N)C#N)OC2(C)C(F)(F)F)c(OC)c1 (centres undefined) | 168 to 172
CC(=O)Nc1nc(Cl)c2c(ncn2COC(COC(C)C)COC(C)C)n1 | 73 to 75
CCOC(=O)N(CC)c1cccc(-c2ccnc3ccnn23)c1 | 79 to 81
CCN1CCNC(=O)C1c1ccc(Nc2nc(Br)cn(C)c2=O)cc1 (centres undefined) | 152 to 153
CCCCc1ccc(-c2ncc(C#N)c(Cl)n2)cc1 | 107
CCc1nc2c(N)nc3cc(-c4cccnc4)ccc3c2n1CC1CCN(C(=O)OC(C)(C)C)CC1 | 229 to 231
Cn1cnnc1C(O)(c1ccc(Cl)cc1)c1ccc2c(c1)c(CCc1cccc(Cl)c1)cc(=O)n2C (centres undefined) | 200
COCCOc1ccc(COC(=O)NS(=O)(=O)NCC2CC2)c(Oc2ncc(C(F)(F)F)cc2Cl)c1 | 150
Cc1cc(C)cc(NC(=O)[C@@H](C)NC(=O)c2cc([N+](=O)[O-])c(Cl)c([N+](=O)[O-])c2)c1 | 202 to 204
CS(=O)(=O)OCc1nc2ccc(F)cc2s1 | 68 to 72
CN1C(=O)CCCc2ccc(NC(=O)c3ccc(C(=O)O)cc3)cc21 | > 270
O=C(O)c1cc2n(c1)CCCC2 | 131 to 134
CC(CCCC(C)(C)O)C1CCC2C3C=CC4=CC(=O)C5OC5C4(C)C3CCC12C (centres undefined) | 162 to 163
O=C(NC(=O)c1c(F)cccc1F)Nc1ccc2c(c1)C(F)(F)OC(F)(F)O2 | 231
CCc1cccc(CC)c1NC(=O)NCC1(c2ccccc2)CCCCC1 | 185 to 186
Cc1cc(C=Cc2ccc(-c3ccc(C(F)(F)F)cc3)cc2)ccc1OCC(=O)O | 243 to 245
NC(=O)CNC(=O)c1cncc(-c2cccc3cc(Cc4cc(F)cc(Cl)c4)sc23)c1 | 176 to 177
COc1cc2c(=O)n(CCN3CCCCC3)c3c4cc5c(cc4nnc3c2cc1OC)OCO5 | 294 to 295
COc1ccc(CCc2cc(OC)c(OC)cc2C)cc1OC | 102
CNC(=O)c1cc2ccccc2c(-c2ccccc2I)n1 | 167 to 168
CC(C)(C)OC(=O)N1[C@@H](CC2CCCCC2)[C@H](CC2SCCCS2)OC1(C)C | 104 to 106
